We go through 4 compounds from US9821018B2, “Composition comprising Raphanus, Theobroma and Passiflora for treating opioid and alcohol abuse” (priority 2012, dated 2017).

Assay [1] relates to PTZ-induced convulsions. The settings on record: mice, i.p.; safranal 0.15 and 0.35 ml/kg body weight, crocin 22 mg/kg; cited from earlier work.
The subject of assay [2] is morphine-induced place preference. The settings on record: i.p.; extract 10, 50 and 100 mg/kg, safranal 1, 5 and 10 mg/kg; cited from earlier work.
For assay [3], the system named is brain serotonin. The assay is described as follows: brain serotonin concentration by ELISA. Type of assay: in vivo, Male Wistar rats. The settings on record: i.p., 30 min after injection; fluoxetine 10 mg/kg, desipramine 50 mg/kg, Raphanus extract 2-256 mg/kg; vs saline. On the procedure: (§1) Male Wistar rats (250-300 g, Amman-Jordan) were used throughout the study (8 rats for each experiment). Animals were housed in groups of 4/cage in a 12/12 h light-cycle (lights on at 07.00 a.m.), with ad-lib food and water available. The animals were randomly allocated to different groups of the experiment. All experiments were conducted in accordance with standard ethical guidelines and approved by the local ethical Committee University of Medical Committee on the Use and Care of Animals, 81/021, Jul. 10, 2011 (Petra University, Amman, Jordan)).
(§2) Fluoxetine hydrochloride [N-methyl-3-[(4-trifluoromethyl) phenoxy]-3-phenylpropylamine hydrochloride] and desipramine hydrochloride [10-11-dihydro-N-methyl-5H-dibenz (Z) [b, f] azepine-5-propanamine hydrochloride] (TOCRIS Bioscience, UK) were dissolved in sterile saline and administered intraperitoneally at a concentration of 1 ml/kg; the extract was prepared immediately before use. The control groups were administered saline.
(§3) The Raphanus sativus extract used was prepared in Jordan. To prepare the extract, 100 g of dried and milled […] was extracted with 1000 ml distilled water by maceration. […] The extract was dissolved in normal saline and immediately administered to the animals. […]

Assay [4] relates to brain dopamine. The assay is described as follows: brain dopamine concentration by ELISA. Type of assay: in vivo, Male Wistar rats. Particulars: i.p., 30 min after injection; fluoxetine 10 mg/kg, desipramine 50 mg/kg, Raphanus extract up to 256 mg/kg (most potent). On the procedure:
as §1, §2, §3

Counter-ions that a name gives are not always drawn.

On to `CC(/C=C/C=C(\C)C(=O)O[C@@H]1O[C@H](CO[C@@H]2O[C@H](CO)[C@@H](O)[C@H](O)[C@H]2O)[C@@H](O)[C@H](O)[C@H]1O)=C\C=C\C=C(C)\C=C\C=C(/C)C(=O)O[C@@H]1O[C@H](CO[C@@H]2O[C@H](CO)[C@@H](O)[C@H](O)[C@H]2O)[C@@H](O)[C@H](O)[C@H]1O` [Crocin, crocin], for which the anticonvulsant activity entry in assay [1] was “did not show anticonvulsant activity”.
Regarding `CC1=C(C=O)C(C)(C)CC=C1` [Safranal, safranal], the anticonvulsant activity entry in assay [1] was “reduced the seizure duration, delayed the onset of tonic convulsions, and protected mice from death”. In addition, in assay [2], the “acquisition and expression of morphine CPP” value is given as “The same results were obtained”.
For `CNCCCN1c2ccccc2CCc2ccccc21` [desipramine, 10-11-dihydro-N-methyl-5H-dibenz (Z) [b, f] azepine-5-propanamine hydrochloride], the brain serotonin levels entry in assay [3] is listed as “neither desipramine nor Raphanus extract can increase brain serotonin levels”. Besides, the “dopamine concentration in the brain” value in assay [4] was “can increase dopamine concentration in the brain”.
For `CNCCC(Oc1ccc(C(F)(F)F)cc1)c1ccccc1` (stereo not shown) [fluoxetine, N-methyl-3-[(4-trifluoromethyl)phenoxy]-3-phenylpropylamine hydrochloride] the same measures were “can increase brain serotonin levels significantly” and “can increase dopamine concentration in the brain”.
